Patent publication US8912329B2 (priority 2009, dated 2014)

Experiments:
EthR-VP16 = EthR-VP16 (Mycobacterium bovis, UniProt Q7TVI1); assay: cell-based; parameters: species or system M. bovis; conditions: 48 h, read-out: % EthR activity (w/o = 100%); ± std. dev. of the mean (n = 3)
[1] = tested on: Mycobacterium tuberculosis laboratory strain H37Rv; assay: Growth inhibition / drug susceptibility testing of M. tuberculosis with MGIT 960 system, compounds combined with ethionamide; type: cell-based; parameters: key to growth inhibition of M. tuberculosis H37Rv (R/I/S): R: Resistance, no effect of combinatorial drug application; I: intermediate; S: sensitive; conditions: for growth inhibitory effect of compound alone on M. tuberculosis H37Rv: without ethionamide; for growth of M. tuberculosis H37Rv in the presence of sub-inhibitory ethionamide concentrations: ethionamide 0.16 and 5 μg/ml, 0.5 to 40.5 μMol compound
[2] = Example compound 0.5 μM + ethionamide 0.16 μg/ml
[3] = Example compound 0.5 μM + ethionamide 0.31 μg/ml
[4] = Example compound 0.5 μM + ethionamide 0.625 μg/ml
[5] = Example compound 0.5 μM + ethionamide 1.25 μg/ml
[6] = Example compound 0.5 μM + ethionamide 2.5 μg/ml
[7] = Example compound 0.5 μM + ethionamide 5 μg/ml
[8] = Example compound 0.5 μM, ethionamide 0 μg/ml
[9] = Example compound 1.5 μM + ethionamide 0.16 μg/ml
[10] = Example compound 1.5 μM + ethionamide 0.31 μg/ml
[11] = Example compound 1.5 μM + ethionamide 0.625 μg/ml
[12] = Example compound 1.5 μM + ethionamide 1.25 μg/ml
[13] = Example compound 1.5 μM + ethionamide 2.5 μg/ml
[14] = Example compound 1.5 μM + ethionamide 5 μg/ml
[15] = Example compound 1.5 μM, ethionamide 0 μg/ml
[16] = Example compound 4.5 μM + ethionamide 0.16 μg/ml
[17] = Example compound 4.5 μM + ethionamide 0.31 μg/ml
[18] = Example compound 4.5 μM + ethionamide 0.625 μg/ml
[19] = Example compound 4.5 μM + ethionamide 1.25 μg/ml
[20] = Example compound 4.5 μM + ethionamide 2.5 μg/ml
[21] = Example compound 4.5 μM + ethionamide 5 μg/ml
[22] = Example compound 4.5 μM, ethionamide 0 μg/ml
[23] = Example compound 13.5 μM + ethionamide 0.16 μg/ml
[24] = Example compound 13.5 μM + ethionamide 0.31 μg/ml
[25] = Example compound 13.5 μM + ethionamide 0.625 μg/ml
[26] = Example compound 13.5 μM + ethionamide 1.25 μg/ml
[27] = Example compound 13.5 μM + ethionamide 2.5 μg/ml
[28] = Example compound 13.5 μM + ethionamide 5 μg/ml
[29] = Example compound 13.5 μM, ethionamide 0 μg/ml
[30] = Example compound 40.5 μM + ethionamide 0.16 μg/ml
[31] = Example compound 40.5 μM + ethionamide 0.31 μg/ml
[32] = Example compound 40.5 μM + ethionamide 0.625 μg/ml
[33] = Example compound 40.5 μM + ethionamide 1.25 μg/ml
[34] = Example compound 40.5 μM + ethionamide 2.5 μg/ml
[35] = Example compound 40.5 μM + ethionamide 5 μg/ml
[36] = Example compound 40.5 μM, ethionamide 0 μg/ml

EthR-VP16, sequence (Q7TVI1 whole entry, looked up): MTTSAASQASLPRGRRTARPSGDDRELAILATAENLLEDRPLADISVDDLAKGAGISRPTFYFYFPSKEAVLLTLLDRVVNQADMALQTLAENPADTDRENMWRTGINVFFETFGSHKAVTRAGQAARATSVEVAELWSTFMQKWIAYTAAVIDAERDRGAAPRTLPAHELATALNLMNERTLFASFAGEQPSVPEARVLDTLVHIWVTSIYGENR

## O=C(CCc1ccccc1)N1CCC(c2ccccc2)C1 (stereo not drawn) [Example 16, 3-Phenyl-1-(3-phenylpyrrolidin-1-yl)propan-1-one]
EthR-VP16
  remaining activity at 0.5 µM: 28.3 ± 1.26%
  remaining activity at 1.5 µM: 27.2 ± 0.46%
  remaining activity at 3 µM: 19.9 ± 0.43%
  remaining activity at 6 µM: 13.5 ± 2.96%
  remaining activity at 15 µM: 11.8 ± 2.6%
  remaining activity at 30 µM: 11.4 ± 2.51%
  remaining activity at 60 µM: 2.82 ± 0.62%
  remaining activity at 300 µM: 0.85 ± 0.18%
[1]; [2]
  growth inhibition of M. tuberculosis H37Rv (R/I/S): R
[1]; [3]
  growth inhibition of M. tuberculosis H37Rv (R/I/S): R
[1]; [4]
  growth inhibition of M. tuberculosis H37Rv (R/I/S): I
[1]; [5]
  growth inhibition of M. tuberculosis H37Rv (R/I/S): S
[1]; [6]
  growth inhibition of M. tuberculosis H37Rv (R/I/S): S
[1]; [7]
  growth inhibition of M. tuberculosis H37Rv (R/I/S): S
[1]; [8]
  growth inhibition of M. tuberculosis H37Rv (R/I/S): R
[1]; [9]
  growth inhibition of M. tuberculosis H37Rv (R/I/S): R
[1]; [10]
  growth inhibition of M. tuberculosis H37Rv (R/I/S): I
[1]; [11]
  growth inhibition of M. tuberculosis H37Rv (R/I/S): S
[1]; [12]
  growth inhibition of M. tuberculosis H37Rv (R/I/S): S
[1]; [13]
  growth inhibition of M. tuberculosis H37Rv (R/I/S): S
[1]; [14]
  growth inhibition of M. tuberculosis H37Rv (R/I/S): S
[1]; [15]
  growth inhibition of M. tuberculosis H37Rv (R/I/S): R
[1]; [16]
  growth inhibition of M. tuberculosis H37Rv (R/I/S): R
[1]; [17]
  growth inhibition of M. tuberculosis H37Rv (R/I/S): I
[1]; [18]
  growth inhibition of M. tuberculosis H37Rv (R/I/S): S
[1]; [19]
  growth inhibition of M. tuberculosis H37Rv (R/I/S): S
[1]; [20]
  growth inhibition of M. tuberculosis H37Rv (R/I/S): S
[1]; [21]
  growth inhibition of M. tuberculosis H37Rv (R/I/S): S
[1]; [22]
  growth inhibition of M. tuberculosis H37Rv (R/I/S): R
[1]; [23]
  growth inhibition of M. tuberculosis H37Rv (R/I/S): I
[1]; [24]
  growth inhibition of M. tuberculosis H37Rv (R/I/S): S
[1]; [25]
  growth inhibition of M. tuberculosis H37Rv (R/I/S): S
[1]; [26]
  growth inhibition of M. tuberculosis H37Rv (R/I/S): S
[1]; [27]
  growth inhibition of M. tuberculosis H37Rv (R/I/S): S
[1]; [28]
  growth inhibition of M. tuberculosis H37Rv (R/I/S): S
[1]; [29]
  growth inhibition of M. tuberculosis H37Rv (R/I/S): R
[1]; [30]
  growth inhibition of M. tuberculosis H37Rv (R/I/S): I
[1]; [31]
  growth inhibition of M. tuberculosis H37Rv (R/I/S): I
[1]; [32]
  growth inhibition of M. tuberculosis H37Rv (R/I/S): S
[1]; [33]
  growth inhibition of M. tuberculosis H37Rv (R/I/S): S
[1]; [34]
  growth inhibition of M. tuberculosis H37Rv (R/I/S): S
[1]; [35]
  growth inhibition of M. tuberculosis H37Rv (R/I/S): S
[1]; [36]
  growth inhibition of M. tuberculosis H37Rv (R/I/S): R
[1]
  growth inhibitory effect of compound alone on M. tuberculosis H37Rv: do not show any growth inhibitory effect
  growth of M. tuberculosis H37Rv in the presence of sub-inhibitory ethionamide concentrations: dose-dependently inhibited

## O=C(Cc1ccccc1)N1CCC(c2ccccc2)C1 (stereo not drawn) [Example 17, 2-Phenyl-1-(3-phenylpyrrolidin-1-yl)ethan-1-one]
EthR-VP16
  remaining activity at 0.5 µM: 38.5 ± 8.47%
  remaining activity at 1.5 µM: 35.5 ± 7.81%
  remaining activity at 3 µM: 22.5 ± 4.94%
  remaining activity at 6 µM: 16.3 ± 3.58%
  remaining activity at 15 µM: 14.2 ± 3.13%
  remaining activity at 30 µM: 11.5 ± 8.52%
  remaining activity at 60 µM: 1.86 ± 0.4%
  remaining activity at 300 µM: 0.83 ± 0.18%
[1]; [2]
  growth inhibition of M. tuberculosis H37Rv (R/I/S): R
[1]; [3]
  growth inhibition of M. tuberculosis H37Rv (R/I/S): R
[1]; [4]
  growth inhibition of M. tuberculosis H37Rv (R/I/S): R
[1]; [5]
  growth inhibition of M. tuberculosis H37Rv (R/I/S): R
[1]; [6]
  growth inhibition of M. tuberculosis H37Rv (R/I/S): I
[1]; [7]
  growth inhibition of M. tuberculosis H37Rv (R/I/S): S
[1]; [8]
  growth inhibition of M. tuberculosis H37Rv (R/I/S): R
[1]; [9]
  growth inhibition of M. tuberculosis H37Rv (R/I/S): R
[1]; [10]
  growth inhibition of M. tuberculosis H37Rv (R/I/S): R
[1]; [11]
  growth inhibition of M. tuberculosis H37Rv (R/I/S): R
[1]; [12]
  growth inhibition of M. tuberculosis H37Rv (R/I/S): I
[1]; [13]
  growth inhibition of M. tuberculosis H37Rv (R/I/S): S
[1]; [14]
  growth inhibition of M. tuberculosis H37Rv (R/I/S): S
[1]; [15]
  growth inhibition of M. tuberculosis H37Rv (R/I/S): R
[1]; [16]
  growth inhibition of M. tuberculosis H37Rv (R/I/S): R
[1]; [17]
  growth inhibition of M. tuberculosis H37Rv (R/I/S): R
[1]; [18]
  growth inhibition of M. tuberculosis H37Rv (R/I/S): R
[1]; [19]
  growth inhibition of M. tuberculosis H37Rv (R/I/S): I
[1]; [20]
  growth inhibition of M. tuberculosis H37Rv (R/I/S): S
[1]; [21]
  growth inhibition of M. tuberculosis H37Rv (R/I/S): S
[1]; [22]
  growth inhibition of M. tuberculosis H37Rv (R/I/S): R
[1]; [23]
  growth inhibition of M. tuberculosis H37Rv (R/I/S): R
[1]; [24]
  growth inhibition of M. tuberculosis H37Rv (R/I/S): R
[1]; [25]
  growth inhibition of M. tuberculosis H37Rv (R/I/S): I
[1]; [26]
  growth inhibition of M. tuberculosis H37Rv (R/I/S): I
[1]; [27]
  growth inhibition of M. tuberculosis H37Rv (R/I/S): S
[1]; [28]
  growth inhibition of M. tuberculosis H37Rv (R/I/S): S
[1]; [29]
  growth inhibition of M. tuberculosis H37Rv (R/I/S): R
[1]; [30]
  growth inhibition of M. tuberculosis H37Rv (R/I/S): R
[1]; [31]
  growth inhibition of M. tuberculosis H37Rv (R/I/S): R
[1]; [32]
  growth inhibition of M. tuberculosis H37Rv (R/I/S): S
[1]; [33]
  growth inhibition of M. tuberculosis H37Rv (R/I/S): S
[1]; [34]
  growth inhibition of M. tuberculosis H37Rv (R/I/S): S
[1]; [35]
  growth inhibition of M. tuberculosis H37Rv (R/I/S): S
[1]; [36]
  growth inhibition of M. tuberculosis H37Rv (R/I/S): R
[1]
  growth inhibitory effect of compound alone on M. tuberculosis H37Rv: do not show any growth inhibitory effect
  growth of M. tuberculosis H37Rv in the presence of sub-inhibitory ethionamide concentrations: dose-dependently inhibited
